# From patent US20220135567A1, “TYK2 PSEUDOKINASE LIGANDS” (Ventyx Biosciences, Inc., priority 2019, published 2022)
# System: IFN-a/Jak1Tyk2
# Test: Co-stimulation assay in lysed whole blood: IFNa (JAK1/TYK2) stimulated STAT1 phosphorylation
# Type: cell-based
# Settings: 20 min, lysed human whole blood, IFNa 100 ng/mL + GM-CSF 10 ng/mL, pSTAT1 by flow cytometry
# Protocol: Dilute RBC lysis buffer to 1× in distilled water. Add 2 mL blood to 38 mL of 1×RBC-lysis buffer. Incubate for 15 mins at RT, in dark. Spin at 300 g, 5 mins, to collect the pellet. Re-lyse if necessary. Re-suspend pellet in 5 mL of cRPMI.
# Aliquot 80 μL of lysed human blood in to wells of 96 deep-well plate. Add 10 μl of (10× conc.) of different concentrations of compounds to all wells except controls (unstained and unstimulated) and mix it with the help of 100 uL multichannel. Add 10 uL of RPMI media in controls. For dilution of compounds and dilution range please refer Appendix. Incubate on water bath or CO2 incubator for 1 hour at 37° C. Add 10 μl of (10× conc.) of cytokine mix (GM-CSF and IFNa) (final conc. 10 ng/mL of GM-CSF and 100 ng/mL of IFNa) to each well except unstimulated and unstained controls and incubate further for 20 minutes on water bath at 37° C.
# Add 900 μL of prewarmed 1× Fix/Lyse solution (Appendix) and mix it properly using 1000 μl multichannel, incubate further on water bath at 37° C. for 10 minutes (which includes time of addition). Centrifuge at 800×g for 5 minutes at 40° C.; remove 900 uL of supernatant and add 900 μL of 1×PBS. Centrifuge at 800×g for 5 minutes at 40° C., remove 900 μL of supernatant. Wash one more time with 900 μL of PBS (optional) and resuspend pellets in 100 uL of PBS.
# Disrupt the pellet by gentle tapping and resuspend in 1000 μL of BD Phosflow Perm Buffer III and incubate plate on ice for 30 minutes. Centrifuge plate at 800×g for 5 minutes at 40° C. Wash two more times with 1000 μL of BD Pharmingen Stain Buffer.
# Disrupt the pellet by gentle tapping. Resuspend pellets in 100 uL of Stain Buffer and add 5 μL of pSTAT5_AF488 Ab and 5 uL of pSTAT1_PE in all wells except unstained control and mix properly using 200 μl multichannel, incubate overnight at […]. Add 900 μL of wash buffer and centrifuge at 1800 rpm for 3 minutes at […]. Wash one more time with 1000 μL of BD Pharmingen Stain Buffer. Finally resuspend the pellet in 300 uL of BD Pharmingen Stain Buffer. Transfer the cells to 96-well v-bottom plate and acquire the cells in Beckman Coulter CytExpert. Acquiring cells in Flow Cytometer: Keep the threshold value to 250 and cell concentration should not exceed 100-500 cells/μL. Acquire at least 5,000-10,000 cells.
# Cytokine dilution: 1) GM-CSF Stock at 100 ug/mL. Prepare an intermediate dilution of 1 ug/mL by adding 2 uL of stock into 198 uL of cRPMI. Further dilute to 100 ng/mL by adding 100 uL of the intermediate stock to 900 uL of cRPMI. 2) IFNa Stock at 200 ug/mL. Dilute IFNa stock 1:200 by adding 5 uL of stock into the 1000 uL of 100 ng/mL GM-CSF working stock as above to give a combined working stock of 1000 ng/mL of IFNa and 100 ng/mL GM-CSF (10×). Keep it on ice until used.
# Lyse/Fix buffer preparation: Dilute 5× Lyse/Fix buffer to 1× using MQ water and keep at 37° C. until used.
# BD Phosflow perm buffer III: Keep on ice/fridge.
row,Structure (SMILES),IC50 [nM]
1,"CNc1cc(Nc2cccc3c2OC(F)(F)O3)nc2c(C(=O)NCC(C)(C)CO)cnn12 [Compound 48, 5-((2,2-difluorobenzo[d][1,3]dioxol-4-yl)amino)-N-(3-hydroxy-2,2-dimethylpropyl)-7-(methylamino)pyrazolo[1,5-a]pyrimidine-3-carboxamide]",< 100
2,"CNc1cc(Nc2cccn(-c3cccc(C)n3)c2=O)nc2c(C(=O)N[C@H]3C[C@H]3F)cnn12 [Compound 111, N-((1S,2R)-2-fluorocyclopropyl)-5-((6′-methyl-2-oxo-2H-[1,2′-bipyridin]-3-yl)amino)-7-(methylamino)pyrazolo[1,5-a]pyrimidine-3-carboxamide]",< 100
3,"CNc1cc(Nc2c(Cl)ccc3c2OCO3)nc2c(C(=O)NCC(C)(C)CO)cnn12 [Compound 49, 5-((5-chlorobenzo[d][1,3]dioxol-4-yl)amino)-N-(3-hydroxy-2,2-dimethylpropyl)-7-(methylamino)pyrazolo[1,5-a]pyrimidine-3-carboxamide]",1000 to 10000
4,"CNc1cc(Nc2ccc3c(c2)CCN(C)C3)nc2c(C(=O)NC3CC3)cnn12 [Compound 60, N-cyclopropyl-5-((2-methyl-1,2,3,4-tetrahydroisoquinolin-6-yl)amino)-7-(methylamino)pyrazolo[1,5-a]pyrimidine-3-carboxamide]",1000 to 10000
5,"CNc1cc(Nc2cccn(-c3cccc(C)n3)c2=O)nc2c(C(=O)NC3CC(O)C3)cnn12 (stereo not shown) [Compound 100, N-(3-hydroxycyclobutyl)-5-((6′-methyl-2-oxo-2H-[1,2′-bipyridin]-3-yl)amino)-7-(methylamino)pyrazolo[1,5-a]pyrimidine-3-carboxamide]",1000 to 10000
6,"CNc1cc(Nc2cccn(C)c2=O)nc2c(C(=O)NC3CCC3)cnn12 [Compound 113, N-cyclobutyl-5-((1-methyl-2-oxo-1,2-dihydropyridin-3-yl)amino)-7-(methylamino)pyrazolo[1,5-a]pyrimidine-3-carboxamide]",< 100
7,"CNC(=O)c1cnn2c(NC)cc(Nc3cc(F)cc(F)c3OC)nc12 [Compound 71, 5-((3,5-difluoro-2-methoxyphenyl)amino)-N-methyl-7-(methylamino)pyrazolo[1,5-a]pyrimidine-3-carboxamide]",1000 to 10000
8,"CNc1cc(Nc2cccn(-c3ccccn3)c2=O)nc2c(C(=O)N[C@H]3C[C@H]3F)cnn12 [Compound 115, N-((1S,2R)-2-fluorocyclopropyl)-7-(methylamino)-5-((2-oxo-2H-[1,2′-bipyridin]-3-yl)amino)pyrazolo[1,5-a]pyrimidine-3-carboxamide]",< 100
9,"CC(C)(CO)CNC(=O)c1cnn2c(NC3CC3)cc(Nc3cccc4c3OCO4)nc12 [Compound 59, 5-(benzo[d][1,3]dioxol-4-ylamino)-7-(cyclopropylamino)-N-(3-hydroxy-2,2-dimethylpropyl)pyrazolo[1,5-a]pyrimidine-3-carboxamide]",1000 to 10000
10,"CCOc1ccc(-n2cccc(Nc3cc(NC)n4ncc(C(=O)NC5CCC5)c4n3)c2=O)nn1 [Compound 108, N-cyclobutyl-5-((1-(6-ethoxypyridazin-3-yl)-2-oxo-1,2-dihydropyridin-3-yl)amino)-7-(methylamino)pyrazolo[1,5-a]pyrimidine-3-carboxamide]",< 100
11,"CNc1cc(Nc2cccc3c2OCCO3)nc2c(C(=O)NCC(F)(F)F)cnn12 [Compound 52, 5-((2,3-dihydrobenzo[b][1,4]dioxin-5-yl)amino)-7-(methylamino)-N-(2,2,2-trifluoroethyl)pyrazolo[1,5-a]pyrimidine-3-carboxamide]",100 to 1000
12,"CNc1cc(Nc2ccnn2CC(F)(F)F)nc2c(C(=O)NC3CC3)cnn12 [Compound 70, N-cyclopropyl-7-(methylamino)-5-((1-(2,2,2-trifluoroethyl)-1H-pyrazol-5-yl)amino)pyrazolo[1,5-a]pyrimidine-3-carboxamide]",100 to 1000
13,"CNc1cc(Nc2cccc3c2OCCO3)nc2c(C(=O)NC3CCC3)cnn12 [Compound 96, N-cyclobutyl-5-((2,3-dihydrobenzo[b][1,4]dioxin-5-yl)amino)-7-(methylamino)pyrazolo[1,5-a]pyrimidine-3-carboxamide]",< 100
14,"CNc1cc(Nc2cccn(C)c2=O)nc2c(C(=O)N[C@H]3C[C@H]3F)cnn12 [Compound 107, N-((1S,2R)-2-fluorocyclopropyl)-5-((1-methyl-2-oxo-1,2-dihydropyridin-3-yl)amino)-7-(methylamino)pyrazolo[1,5-a]pyrimidine-3-carboxamide]",< 100
15,"[2H]C([2H])([2H])n1cccc(Nc2cc(NC)n3ncc(C(=O)NC4CCC4)c3n2)c1=O [Compound 93, N-cyclobutyl-5-((1-(methyl-d3)-2-oxo-1,2-dihydropyridin-3-yl)amino)-7-(methylamino)pyrazolo[1,5-a]pyrimidine-3-carboxamide]",< 100
16,"CCOC(=O)c1nscc1Nc1cc(NC)n2ncc(C(=O)NC3CC3)c2n1 [Compound 38, ethyl 4-((3-(cyclopropylcarbamoyl)-7-(methylamino)pyrazolo[1,5-a]pyrimidin-5-yl)amino)isothiazole-3-carboxylate]",> 300
17,"[2H]C([2H])([2H])Nc1cc(Nc2cc(F)cc3c2OCCO3)nc2c(C(N)=O)cnn12 [Compound 76, 5-((7-fluoro-2,3-dihydrobenzo[b][1,4]dioxin-5-yl)amino)-7-((methyl-d3)amino)pyrazolo[1,5-a]pyrimidine-3-carboxamide]",< 100
18,"CNc1cc(Nc2cc(Cl)cc3c2OCCO3)nc2c(C(=O)NCC(C)(C)CO)cnn12 [Compound 92, 5-((7-chloro-2,3-dihydrobenzo[b][1,4]dioxin-5-yl)amino)-N-(3-hydroxy-2,2-dimethylpropyl)-7-(methylamino)pyrazolo[1,5-a]pyrimidine-3-carboxamide]",< 100
19,"CNc1cc(Nc2cc(F)cc3c2OCCO3)nc2c(C(=O)NCC(C)(C)CO)cnn12 [Compound 109, 5-((7-fluoro-2,3-dihydrobenzo[b][1,4]dioxin-5-yl)amino)-N-(3-hydroxy-2,2-dimethylpropyl)-7-(methylamino)pyrazolo[1,5-a]pyrimidine-3-carboxamide]",< 100
20,"CCOC(=O)c1cscc1Nc1cc(NC)n2ncc(C(=O)NC3CC3)c2n1 [Compound 37, ethyl 4-((3-(cyclopropylcarbamoyl)-7-(methylamino)pyrazolo[1,5-a]pyrimidin-5-yl)amino)thiophene-3-carboxylate]",> 300
21,"CNc1cc(Nc2cccn(C)c2=O)nc2c(C(=O)NC3CC(F)(F)C3)cnn12 [Compound 91, N-(3,3-difluorocyclobutyl)-5-((1-methyl-2-oxo-1,2-dihydropyridin-3-yl)amino)-7-(methylamino)pyrazolo[1,5-a]pyrimidine-3-carboxamide]",1000 to 10000
22,"[2H]C([2H])([2H])NC(=O)c1cnn2c(NC([2H])([2H])[2H])cc(Nc3cc(F)cc4c3OCCO4)nc12 [Compound 78, 5-((7-fluoro-2,3-dihydrobenzo[b][1,4]dioxin-5-yl)amino)-N-(methyl-d3)-7-((methyl-d3)amino)pyrazolo[1,5-a]pyrimidine-3-carboxamide]",100 to 1000
23,"CNc1cc(Nc2cc(F)cc(F)c2OC)nc2c(C(N)=O)cnn12 [Compound 74, 5-((3,5-difluoro-2-methoxyphenyl)amino)-7-(methylamino)pyrazolo[1,5-a]pyrimidine-3-carboxamide]",> 300

# Same assay, conditions: lysed human whole blood; IFNa 100 ng/mL + GM-CSF 10 ng/mL, 20 minutes; pSTAT1 by flow cytometry
row,Structure (SMILES),IC50 [nM]
1,CNc1cc(Nc2cc(F)cc(F)c2OC)nc2c(C(=O)NC3CC3)cnn12 [Compound 19],< 100
2,"CNC(=O)c1cnn2c(NC)cc(Nc3cc(C)cc(C)c3)nc12 [Compound 9, 5-((3,5-dimethylphenyl)amino)-N-methyl-7-(methylamino)pyrazole [1,5-a]pyrimidine-3-carboxamide]",1000 to 10000
